From patent publication US20220409593A1 (ARKUDA THERAPEUTICS, priority 2019, published 2022)

Experiments:
mouse BV2 cells = test: secretion of progranulin from mouse BV2 cells; assay type: cell-based
Excerpt: The compounds disclosed herein (e.g., compounds of Formula I, II, IIa, IIb, III, and as shown in Tables A and B) can increase the amount of progranulin or granulin in a subject. In some cases, the compounds increase the amount of progranulin in a subject. In some cases, the compounds increase the amount of granulin in a subject. In some cases, the compounds affect cells to increase secretion of progranulin. Solifenacin is a drug currently used for urinary incontinence. […] As such, the compounds disclosed herein, (e.g., compounds of Formula I, II, IIa, IIb, III, and as shown in Tables A and B) can be useful in treating disorders associated with aberrant (e.g., reduced) progranulin secretion or activity.

secreted mouse PGRN = test: progranulin induction cellular assay (PGRN assay, ELISA-based readout); settings: Mus musculus, progranulin secreted into cell culture medium, cells named in method: mouse primary microglia, primary cortical neurons, BV-2
Procedure: Cellular Assays: To measure the efficacy of compounds, a progranulin induction cellular assay in mouse primary microglia (pMG), primary cortical neurons, and BV-2 cell lines is used. BV-2 cells are split the day before plating into a 96well plate format at approximately 80%. Cells should be plated the day before and allowed for 1 hour attachment period and for 16 hour incubation. Levels of progranulin secreted into the cell culture medium or retained in the cell lysate can be quantified using an ELISA-based readout and measurement of secreted mouse PGRN in the medium was assessed by the methodology published by Ghidoni et al. 2012. Standard ELISA kits to measure PGRN are available from vendors such as Adipogen, R&D, and Biovendor.
Table D below presents the results of a PGRN assay as described above.

Compound | EC50 (secreted mouse PGRN) | secretion of progranulin (mouse BV2 cells)
O=C(O[C@H]1CN2CCC1CC2)N1CCc2ccccc2[C@@H]1c1ccccc1 [Solifenacin] | – | causes the secretion of progranulin
c1ccc([C@H]2c3ccccc3CCN2C2=NC[C@]3(CN4CCC3CC4)O2)cc1 (single isomer, unassigned) [Compound 3040] | 1130 nM | –
Fc1ccc([C@H]2c3ccccc3CCN2C2=NC[C@@]3(CN4CCC3CC4)O2)cc1F (stereo in doubt) [Compound 3024] | 3960 nM | –
Fc1ccc([C@H]2c3ccccc3CCN2C2=NC[C@]3(CN4CCC3CC4)O2)c(F)c1 (single isomer, unassigned) [Compound 3017] | 260 nM | –
Fc1ccc([C@H]2c3ccccc3CCN2C2=NC[C@]3(CN4CCC3CC4)O2)cc1 (single isomer, unassigned) [Compound 3000] | 250 nM | –
N[C@H]1CC[C@]2(CN=C(N3CCc4ccccc4[C@@H]3c3ccc(F)cc3)O2)C1 (single isomer, unassigned) [Compound 3078] | 127 nM | –
CN(C)[C@H]1C[C@]2(CN=C(N3CCc4ccccc4[C@@H]3c3ccc(F)cc3)O2)C1 (single isomer, unassigned) [Compound 3158] | 3580 nM | –
Fc1ccc([C@H]2c3ccccc3CCN2C2=NC[C@H]([C@H]3CCCNC3)O2)cc1 (single isomer, unassigned) [Compound 3076] | > 10000 nM | –
OCCN1CC[C@@]2(CN=C(N3CCc4ccccc4[C@@H]3c3ccc(F)cc3)O2)C1 [Compound 3175, 2-((S)-2-((S)-1-(4-fluorophenyl)-3,4-dihydroisoquinolin-2(1H)-yl)-1-oxa-3,7-diazaspiro[4.4]non-2-en-7-yl)ethan-1-ol] | 181 nM | –
Fc1ccc([C@H]2c3ccccc3CCN2C2=NCC(C3CNC3)O2)cc1 (single isomer, unassigned) [Compound 3069] | 109 nM | –
CN1CCC[C@]2(CN=C(N3CCc4ccccc4[C@@H]3c3ccc(F)c(F)c3)O2)C1 (stereo in doubt) [Compound 3029] | 4020 nM | –

Continued, in another order:

EC50 (secreted mouse PGRN) | Compound | secretion of progranulin (mouse BV2 cells)
318 nM | OCCCN1CC[C@@]2(CN=C(N3CCc4ccccc4[C@@H]3c3ccc(F)cc3)O2)C1 [Compound 3176, 3-((S)-2-((S)-1-(4-fluorophenyl)-3,4-dihydroisoquinolin-2(1H)-yl)-1-oxa-3,7-diazaspiro[4.4]non-2-en-7-yl)propan-1-ol] | –
757 nM | N[C@H]1CCC[C@]12CN=C(N1CCc3ccccc3[C@@H]1c1ccc(F)cc1)O2 (single isomer, unassigned) [Compound 3086] | –
312 nM | Fc1ccc([C@H]2c3ccccc3CCN2C2=N[C@H](C3CCNCC3)CO2)cc1 (single isomer, unassigned) [Compound 3134] | –
6390 nM | CN1CCC[C@]2(CN=C(N3CCc4ccccc4[C@@H]3c3cc(F)cc(F)c3)O2)C1 (single isomer, unassigned) [Compound 3010] | –
132 nM | Fc1ccc([C@H]2c3ccccc3CCN2C2=NC[C@@H](C3(F)CNC3)O2)cc1 (single isomer, unassigned) [Compound 3154] | –
> 10000 nM | CN1CCC[C@@]2(CN=C(N3CCc4ccccc4[C@H]3c3cc(F)c(F)c(F)c3)O2)C1 (single isomer, unassigned) [Compound 3005] | –
